Results published in the NIST ThermoML archive (doi:10.1016/j.fluid.2015.07.023).
Numbers after ± are expanded uncertainties.

Legend:
[1] = refractive index (Na D-line) (dimensionless); conditions: 298.15 K; 101.33 kPa; Liquid; Standard Abbe refractometry
[2] = 298.15 K; 101.33 kPa; Liquid; mechanical oscillator

In the case of CC(C)OC(C)C [diisopropyl ether], the refractive index [1] is reported as 1.3653 ± 0.0007 and the mass density [2] is reported as 718.3 ± 0.3 kg/m3.

For CO [methanol], the refractive index [1] was 1.32666 ± 0.00068 and the mass density [2] was 786.62 ± 0.21 kg/m3.

CC(C)O [propan-2-ol] gave a refractive index [1] of 1.37522 ± 0.00068 and a mass density [2] of 782.45 ± 0.21 kg/m3.
